Data from the NIST ThermoML archive (doi:10.1016/j.jct.2005.05.008).
Numbers after ± are expanded uncertainties.

Columns and labels:
[1] = an = ratio of the nth substance listed, in mol/kg; conditions: 101 kPa, Liquid, Vibrating tube method
[2] = 298.15 K; 101.33 kPa; Liquid

CCCC[N+](CCCC)(CCCC)CCCC.[O-][Cl+3]([O-])([O-])[O-] [tetrabutylammonium perchlorate] + CN(C)C=O
mass density [kg/m3], [1]
Conditions | a1 = 0.02852 | a1 = 0.05393 | a1 = 0.07866 | a1 = 0.1047 | a1 = 0.1431 | a1 = 0.1824 | a1 = 0.222 | a1 = 0.2619
283.15 K | 959.148 ± 0.27 | 960.097 ± 0.27 | 961.015 ± 0.27 | 961.969 ± 0.27 | 963.376 ± 0.27 | 964.794 ± 0.27 | 966.232 ± 0.27 | 967.661 ± 0.27
293.15 K | 949.672 ± 0.27 | 950.653 ± 0.27 | 951.604 ± 0.27 | 952.588 ± 0.27 | 954.042 ± 0.27 | 955.511 ± 0.27 | 956.99 ± 0.27 | 958.466 ± 0.27
298.15 K | 944.93 ± 0.27 | 945.929 ± 0.27 | 946.892 ± 0.27 | 947.89 ± 0.27 | 949.37 ± 0.27 | 950.86 ± 0.27 | 952.366 ± 0.27 | 953.862 ± 0.27
303.15 K | 940.173 ± 0.27 | 941.191 ± 0.27 | 942.17 ± 0.27 | 943.187 ± 0.27 | 944.69 ± 0.27 | 946.204 ± 0.27 | 947.732 ± 0.27 | 949.254 ± 0.27
313.15 K | 930.632 ± 0.26 | 931.686 ± 0.26 | 932.697 ± 0.26 | 933.756 ± 0.26 | 935.303 ± 0.27 | 936.87 ± 0.27 | 938.448 ± 0.27 | 940.016 ± 0.27
323.15 K | 921.05 ± 0.26 | 922.138 ± 0.26 | 923.191 ± 0.26 | 924.277 ± 0.26 | 925.877 ± 0.26 | 927.496 ± 0.26 | 929.126 ± 0.26 | 930.747 ± 0.26
333.15 K | 911.409 ± 0.26 | 912.535 ± 0.26 | 913.625 ± 0.26 | 914.75 ± 0.26 | 916.4 ± 0.26 | 918.08 ± 0.26 | 919.765 ± 0.26 | 921.436 ± 0.26

CC(=O)N(C)C [N,N-dimethylethanamide]
Conditions | mass density [kg/m3]
[2] | 936.357 ± 0.28

CN(C)C=O [dimethylformamide] + C[N+](C)(C)C.[O-][Cl+3]([O-])([O-])[O-]
[1], a2 = 0
Conditions | mass density [kg/m3]
283.15 K | 958.067 ± 0.27
293.15 K | 948.553 ± 0.27
298.15 K | 943.79 ± 0.27
303.15 K | 939.014 ± 0.27
313.15 K | 929.43 ± 0.26
323.15 K | 919.797 ± 0.26
333.15 K | 910.117 ± 0.26

CN(C)C=O [dimethylformamide] + CCC[N+](CCC)(CCC)CCC.[O-][Cl+3]([O-])([O-])[O-]
[1], a2 = 0
Conditions | mass density [kg/m3]
283.15 K | 958.067 ± 0.27
293.15 K | 948.553 ± 0.27
298.15 K | 943.79 ± 0.27
303.15 K | 939.014 ± 0.27
313.15 K | 929.43 ± 0.26
323.15 K | 919.797 ± 0.26
333.15 K | 910.117 ± 0.26

CN(C)C=O [dimethylformamide]
Conditions | mass density [kg/m3]
[2] | 943.792 ± 0.28
